Results reported in patent publication EP4653451A1, “POLYPEPTIDE COMPOUND AND USE THEREOF” (Chengdu New Radiomedicine Technology Co., Ltd., priority 2023, dated 2024).
Structures can show the parent of a compound that is named as a salt. Where two headings read alike, the source gives them in different places. Numbered stars: 1 amine (or outer) side, 2 acyl side, 3 side chain; on linkers, the order of the positions; unused ones are H or OH. Bridge positions count the residues as written; N and C are the ends. Square brackets hold non-standard residues; d marks the D form. Peptide text beside a SMILES is read from it. * marks the point of attachment. X1 = O=C(O)CN1CCN(CC(=O)O)CCN(CC(=O)NCCSCc2cc(CSC[C@@H](CNC(=O)C3CCCC3)N[*:2])cc(C[*:1])c2)CCN(CC(=O)O)CC1; TBMB(SCH2CH2NH-DOTA) = O=C(O)CN1CCN(CC(=O)O)CCN(CC(=O)NCCSCc2cc(C[*:1])cc(C[*:2])c2)CCN(CC(=O)O)CC1; 1Nal = N[C@@H](Cc1cccc2ccccc12)C(=O)O; mXylylene = c1cc(C[*:1])cc(C[*:2])c1; NH(4-picolyl) = c1cc(CN*)ccn1; β3hC = N[C@@H](CS)CC(=O)O; Nle = CCCC[C@H](N)C(=O)O; Hexanoyl = CCCCCC(=O)*; NHcPent = C1CCC(N*)C1; NHBn = c1ccc(CN*)cc1; NHPh = c1ccc(N*)cc1; NHPentyl = CCCCCN*; X3 = C1C2CC1(N*)C2; X2 = C1CCC(CN*)C1

How the values were obtained:
[1] = Pharmacokinetics after tail vein injection; type: in vivo, CD-1 mice; conditions: iv, 0.2 mg/kg
Description: Male CD-1 mice weighing 30-35 g were selected, and a test compound was injected into the tail vein at 0.2 mg/kg. Plasma samples were collected at 5, 15, 30, and 60 min and 2, 4, 8, and 24 h after administration and processed accordingly. The drug content was analyzed by LC-MS/MS.
Among them, compounds 20, 21 and 22 were compounds formed by chelating nonradioactive in with compounds 11, 14 and 16, respectively.

[2] = target: T1, human recombinant FAP protein (Homo sapiens, UniProt Q12884); assay: Inhibitory activity against FAP protease activity (Z-Gly-Pro-AMC fluorescence); type: biochemical
T1 construct: purchased Acrobiosystems FAP-H82Q6
T1 sequence (Q12884 1-760): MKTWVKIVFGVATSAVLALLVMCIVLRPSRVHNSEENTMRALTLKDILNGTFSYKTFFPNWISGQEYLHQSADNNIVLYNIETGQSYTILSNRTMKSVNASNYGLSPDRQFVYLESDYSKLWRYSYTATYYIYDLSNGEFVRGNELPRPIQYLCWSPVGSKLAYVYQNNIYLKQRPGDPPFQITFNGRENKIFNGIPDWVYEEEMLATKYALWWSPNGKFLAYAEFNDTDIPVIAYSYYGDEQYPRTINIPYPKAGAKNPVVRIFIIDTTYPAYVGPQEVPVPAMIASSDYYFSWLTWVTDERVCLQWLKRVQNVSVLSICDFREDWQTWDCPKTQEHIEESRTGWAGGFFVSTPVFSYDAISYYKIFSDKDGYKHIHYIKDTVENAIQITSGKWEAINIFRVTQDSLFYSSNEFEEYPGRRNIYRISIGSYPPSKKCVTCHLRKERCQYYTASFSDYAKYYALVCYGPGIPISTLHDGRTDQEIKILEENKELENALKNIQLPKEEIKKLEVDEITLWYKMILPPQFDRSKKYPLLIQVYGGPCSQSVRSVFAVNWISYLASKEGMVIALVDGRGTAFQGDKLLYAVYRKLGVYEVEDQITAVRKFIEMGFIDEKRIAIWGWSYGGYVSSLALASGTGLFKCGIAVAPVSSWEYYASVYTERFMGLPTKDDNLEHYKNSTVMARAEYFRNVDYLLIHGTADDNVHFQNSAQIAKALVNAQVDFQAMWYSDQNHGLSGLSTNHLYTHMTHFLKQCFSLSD
Description: The human recombinant FAP protein (Acrobiosystems, FAP-H82Q6) was diluted to a 125 pM FAP working solution with an assay buffer (50 mM Tris-HCl, 1 M NaCl, 1 mg/mL BSA, pH 7.5), and the FAP substrate (Z-Gly-Pro-AMC (LEONBIO, 68542-93-8)) was diluted to a 150 µM substrate working solution with the assay buffer. 40 µl of FAP working solution and 20 µl of compounds at different concentrations (4-fold dilution) were taken, then 40 µl of substrate working solution was added, and the mixture was uniformly mixed on a shaker at room temperature for 1 min. The uniformly mixed mixture was reacted at room temperature in the dark for 90 min. The fluorescence value Ex = 380 nm/Em = 460 nm was read by using a microplate reader. The original data was saved, and the IC50 value of the compound was obtained by using the original data or the Inhibition% via calculation and analyzing the data with Graphpad PRISM.

[3] = target: T2, human recombinant DPP4 protein (Homo sapiens, UniProt P27487); assay: Inhibitory activity against DPP4 protease activity (H-Gly-Pro-AMC fluorescence); type: biochemical; conditions: 125 pM DPP4 working solution, 90 min at room temperature
T2 construct: purchased Acrobiosystems DP4-H5211
T2 sequence (P27487 whole entry): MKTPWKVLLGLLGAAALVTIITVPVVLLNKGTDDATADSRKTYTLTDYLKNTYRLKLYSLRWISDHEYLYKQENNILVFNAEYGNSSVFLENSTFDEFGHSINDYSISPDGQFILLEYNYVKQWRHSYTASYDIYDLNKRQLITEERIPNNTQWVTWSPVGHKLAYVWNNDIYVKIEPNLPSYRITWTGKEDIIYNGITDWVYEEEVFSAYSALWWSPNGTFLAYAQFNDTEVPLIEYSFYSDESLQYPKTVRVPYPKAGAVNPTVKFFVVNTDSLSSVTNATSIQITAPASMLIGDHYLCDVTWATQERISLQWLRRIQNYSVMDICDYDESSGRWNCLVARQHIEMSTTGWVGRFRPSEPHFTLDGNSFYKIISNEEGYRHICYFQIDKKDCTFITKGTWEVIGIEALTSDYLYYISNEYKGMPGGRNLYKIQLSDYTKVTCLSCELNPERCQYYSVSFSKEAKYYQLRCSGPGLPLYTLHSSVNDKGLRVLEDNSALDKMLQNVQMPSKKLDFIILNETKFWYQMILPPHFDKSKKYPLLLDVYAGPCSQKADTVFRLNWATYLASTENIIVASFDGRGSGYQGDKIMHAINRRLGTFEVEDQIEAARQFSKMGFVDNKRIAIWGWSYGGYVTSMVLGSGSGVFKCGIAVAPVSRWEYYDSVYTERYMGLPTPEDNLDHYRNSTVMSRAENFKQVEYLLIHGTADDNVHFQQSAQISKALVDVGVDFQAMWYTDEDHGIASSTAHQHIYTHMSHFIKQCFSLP
Description: The human recombinant DPP4 protein (Acrobiosystems, DP4-H5211) was formulated into a 125 pM working solution with an assay buffer (20 mM Tris-HCl, 100 mM NaCl), and the DPP4 substrate (H-Gly-Pro-AMC.HBr (LEONBIO, 115035-46-6)) was diluted to a 250 µM DPP4 substrate working solution with the assay buffer. 40 µl of DPP4 working solution and 20 µl of compounds at different concentrations (4-fold dilution) were taken, then 40 µl of DPP4 substrate working solution was added, and the mixture was uniformly mixed on a shaker at room temperature for 1 min. The uniformly mixed mixture was reacted at room temperature in the dark for 90 min. Reading was made by microplate reader at excitation and emission wavelengths of 380 nm and 460 nm. The original data was saved, and the IC50 value of the compound was obtained by analyzing the data with Graphpad PRISM.

[4] = 125 pM FAP working solution, 90 min at room temperature, read-out: FAP IC50

Row | IC50 [2, 4] [nM] | IC50 [3] [nM] | SMILES | also measured
1 | – | – | CCCCCC(=O)N[C@H]1CSCc2cc(CSCCNC(=O)CN3CCN(CC(=O)O)CCN(CC(=O)O)CCN(CC(=O)O)CC3)cc(c2)CSC[C@@H](C(=O)O)NC(=O)[C@H](Cc2ccccc2)NC(=O)[C@H](CCC(N)=O)NC(=O)[C@H]([C@@H](C)O)NC(=O)[C@@H]2CCCN2C(=O)[C@@H]2CCCN2C1=O [Compound 3BP-3623, reference compound] | AUC(0-t) ([1]; mouse, plasma, male CD-1 mice, tail vein, read-out: AUC0-t): 195 ng·h/mL; clearance ([1]; mouse, plasma, male CD-1 mice, tail vein, read-out: Cl (converted)): 17 mL/min/kg; Cmax ([1]; mouse, plasma, male CD-1 mice, tail vein, read-out: Cmax): 594 ng/mL; half-life ([1]; mouse, plasma, male CD-1 mice, tail vein, read-out: T1/2 (converted)): 0.37 h; Vd ([1]; mouse, plasma, male CD-1 mice, tail vein, read-out: Vss): 0.24 L/kg
2 | 1.53 | > 10000 | CCCCCC(=O)N[C@H]1CSCc2nc(CSCCNC(=O)CN3CCN(CC(=O)O)CCN(CC(=O)O)CCN(CC(=O)O)CC3)nc(n2)CSC[C@@H](C(=O)O)NC(=O)[C@H](Cc2ccccc2)NC(=O)[C@H](CCC(N)=O)NC(=O)[C@H]([C@@H](C)O)NC(=O)[C@@H]2CCCN2C(=O)[C@@H]2CCCN2C1=O [Compound 7, Hex-Cys-Pro-Pro-Thr-Gln-Phe-Cys-OH (Cys bridge 2,4,6-tribromomethyl-1,3,5-triazine (DOTA-AET)) trifluoroacetate] | –
3 | 0.98 | > 10000 | CCCCCC(=O)N[C@H]1CSCc2cc(CSCCNC(=O)CN3CCN(CC(=O)O)CCN(CC(=O)O)CCN(CC(=O)O)CC3)cc(c2)CSC[C@@H](CNC(=O)CCc2ccc(C(F)(F)F)cc2)NC(=O)[C@H](Cc2cccc3ccccc23)NC(=O)[C@H](CCC(N)=O)NC(=O)[C@H]([C@@H](C)O)NC(=O)[C@@H]2CCCN2C(=O)[C@@H]2CCCN2C1=O [Compound 19, Hex-Cys-Pro-Pro-Thr-Gln-1Nal-Cys-CH2NH-3-(4-trifluoromethylphenyl)propanoic acid (Cys bridge TBMB (DOTA-AET))] | –
4 | – | – | CCCCCC(=O)N[C@H]1CSCc2cc(CSCCNC(=O)CN3CCN(CC(=O)O)CCN(CC(=O)O)CCN(CC(=O)O)CC3)cc(c2)CSC[C@@H](CC(=O)O)NC(=O)[C@H](Cc2cccc3ccccc23)NC(=O)[C@H](CCC(N)=O)NC(=O)[C@H]([C@@H](C)O)NC(=O)[C@@H]2CCCN2C(=O)[C@@H]2CCCN2C1=O [Compound 20] (Hexanoyl-CPPTQ[1Nal][β3hC]-OH; linker 1-7 via TBMB(SCH2CH2NH-DOTA)) | AUC(0-t) ([1]; male, CD-1, mouse, in vivo): 308 ng·h/mL; Cmax ([1]; male, CD-1, mouse, in vivo): 772 ng/mL; Vd ([1]; male, CD-1, mouse, in vivo): 0.52 L/kg; clearance ([1]; male, CD-1, mouse, in vivo): 10.2 mL/min/kg; half-life ([1]; male, CD-1, mouse, in vivo): 1.63 h
5 | – | – | CCCCCC(=O)N[C@H]1CSCc2cc(CSCCNC(=O)CN3CCN(CC(=O)O)CCN(CC(=O)O)CCN(CC(=O)O)CC3)cc(c2)CSC[C@@H](CNC(=O)C2CCCC2)NC(=O)[C@H](Cc2ccccc2)NC(=O)[C@H](CCC(N)=O)NC(=O)[C@H]([C@@H](C)O)NC(=O)[C@@H]2CCCN2C(=O)[C@@H]2CCCN2C1=O [Compound 21] (Hexanoyl-CPPTQF; linker 1-C via X1) | AUC(0-t) ([1]; male, CD-1, mouse, in vivo): 634 ng·h/mL; Cmax ([1]; male, CD-1, mouse, in vivo): 1010 ng/mL; Vd ([1]; male, CD-1, mouse, in vivo): 0.22 L/kg; clearance ([1]; male, CD-1, mouse, in vivo): 5.17 mL/min/kg; half-life ([1]; male, CD-1, mouse, in vivo): 1.26 h
6 | 1.61 | > 10000 | CCCCCC(=O)N[C@H]1CSCc2cccc(c2)CSC[C@@H](CC(N)=O)NC(=O)[C@H](Cc2cccc3ccccc23)NC(=O)[C@H](CCC(N)=O)NC(=O)[C@H]([C@@H](C)O)NC(=O)[C@@H]2CCCN2C(=O)[C@@H]2CCCN2C1=O [Compound 31] (Hexanoyl-CPPTQ[1Nal][β3hC]-NH2; linker 1-7 via mXylylene) | –
7 | 3.35 | > 10000 | CCCCCNC(=O)C[C@@H]1CSCc2cccc(c2)CSC[C@H](NC(=O)CCCCC)C(=O)N2CCC[C@H]2C(=O)N2CCC[C@H]2C(=O)N[C@@H]([C@@H](C)O)C(=O)N[C@@H](CCC(N)=O)C(=O)N[C@@H](Cc2cccc3ccccc23)C(=O)N1 [Compound 32] (Hexanoyl-CPPTQ[1Nal][β3hC]-NHPentyl; linker 1-7 via mXylylene) | –
8 | 2.9 | > 10000 | CCCCCC(=O)N[C@H]1CSCc2cccc(c2)CSC[C@@H](CC(=O)NCc2ccccc2)NC(=O)[C@H](Cc2cccc3ccccc23)NC(=O)[C@H](CCC(N)=O)NC(=O)[C@H]([C@@H](C)O)NC(=O)[C@@H]2CCCN2C(=O)[C@@H]2CCCN2C1=O [Compound 33] (Hexanoyl-CPPTQ[1Nal][β3hC]-NHBn; linker 1-7 via mXylylene) | –
9 | 5.92 | > 10000 | CCCCCC(=O)N[C@H]1CSCc2cccc(c2)CSC[C@@H](CC(=O)NC2CCCC2)NC(=O)[C@H](Cc2cccc3ccccc23)NC(=O)[C@H](CCC(N)=O)NC(=O)[C@H]([C@@H](C)O)NC(=O)[C@@H]2CCCN2C(=O)[C@@H]2CCCN2C1=O [Compound 34] (Hexanoyl-CPPTQ[1Nal][β3hC]-NHcPent; linker 1-7 via mXylylene) | –
10 | 6.62 | > 10000 | CCCCCC(=O)N[C@H]1CSCc2cccc(c2)CSC[C@@H](CC(=O)NCC2CCCC2)NC(=O)[C@H](Cc2cccc3ccccc23)NC(=O)[C@H](CCC(N)=O)NC(=O)[C@H]([C@@H](C)O)NC(=O)[C@@H]2CCCN2C(=O)[C@@H]2CCCN2C1=O [Compound 35] (Hexanoyl-CPPTQ[1Nal][β3hC]-X2; linker 1-7 via mXylylene) | –
11 | 4.18 | > 10000 | CCCCCC(=O)N[C@H]1CSCc2cccc(c2)CSC[C@@H](CC(=O)Nc2ccccc2)NC(=O)[C@H](Cc2cccc3ccccc23)NC(=O)[C@H](CCC(N)=O)NC(=O)[C@H]([C@@H](C)O)NC(=O)[C@@H]2CCCN2C(=O)[C@@H]2CCCN2C1=O [Compound 36] (Hexanoyl-CPPTQ[1Nal][β3hC]-NHPh; linker 1-7 via mXylylene) | –
12 | 4.67 | > 10000 | CCCCCC(=O)N[C@H]1CSCc2cccc(c2)CSC[C@@H](CC(=O)NCc2ccncc2)NC(=O)[C@H](Cc2cccc3ccccc23)NC(=O)[C@H](CCC(N)=O)NC(=O)[C@H]([C@@H](C)O)NC(=O)[C@@H]2CCCN2C(=O)[C@@H]2CCCN2C1=O [Compound 37] (Hexanoyl-CPPTQ[1Nal][β3hC]-{NH(4-picolyl)}; linker 1-7 via mXylylene) | –
13 | 4.12 | > 10000 | CCCCCC(=O)N[C@H]1CSCc2cccc(c2)CSC[C@@H](CC(=O)NC23CC(C2)C3)NC(=O)[C@H](Cc2cccc3ccccc23)NC(=O)[C@H](CCC(N)=O)NC(=O)[C@H]([C@@H](C)O)NC(=O)[C@@H]2CCCN2C(=O)[C@@H]2CCCN2C1=O [Compound 38] (Hexanoyl-CPPTQ[1Nal][β3hC]-X3; linker 1-7 via mXylylene) | –
14 | 5.31 | > 10000 | CCCC[C@H](N)C(=O)N[C@H]1CSCc2cccc(c2)CSC[C@@H](CC(=O)O)NC(=O)[C@H](Cc2cccc3ccccc23)NC(=O)[C@H](CCC(N)=O)NC(=O)[C@H]([C@@H](C)O)NC(=O)[C@@H]2CCCN2C(=O)[C@@H]2CCCN2C1=O [Compound 39] (H-[Nle]CPPTQ[1Nal][β3hC]-OH; linker 2-8 via mXylylene) | –

Row | SMILES | IC50 [2, 4] [nM] | IC50 [3] [nM] | also measured
15 | CCCCCC(=O)N[C@H]1CSCc2cc(CSCCNC(=O)CN3CCN(CC(=O)O)CCN(CC(=O)O)CCN(CC(=O)O)CC3)cc(c2)CSC[C@@H](CC(=O)O)NC(=O)[C@H](Cc2ccccc2)NC(=O)[C@H](CCC(N)=O)NC(=O)[C@H]([C@@H](C)O)NC(=O)[C@@H]2CCCN2C(=O)[C@@H]2CCCN2C1=O [Compound 8, Hex-Cys-Pro-Pro-Thr-Gln-Phe-beta-HomoCys (Cys bridge TBMB (DOTA-AET)) trifluoroacetate] | – | > 10000 | IC50 [2]: 1.18 nM
